# Molecular target: histone deacetylase HD-1, RPD3 homologue (Zea mays)
# Assay: Inhibition of in vitro enzyme activity measured in a highly purified maize Histone deacetylase 1 preparation
row,IC50,Compound
1,40 nM,O=C(CCCCCCC(=O)N[C@@H](Cc1ccccc1)C(=O)NCc1ccccc1)NO [Octanedioic acid ((S)-1-benzylcarbamoyl-2-phenyl-ethyl)-amide hydroxyamide]
2,25 nM,O=C(CCCCCCC(=O)N[C@@H](Cc1ccccc1)C(=O)NCCc1ccccc1)NO [Octanedioic acid hydroxyamide ((S)-1-phenethylcarbamoyl-2-phenyl-ethyl)-amide]

# — BindingDB's records for doi:10.1021/jm0208119 (Westfälische Wilhelms-Universität Münster, 2002)
